Test [1] has as its target T1, human P2Y1 receptor (hP2Y1) (Homo sapiens, UniProt P47900).
T1 construct: a genomic fragment encompassing the entire open reading frame of the human P2Y1 receptor; expressed in transfected cells; host or cells: Jurkat cells, clonal line hP2Y1-JA7, vector pcINeo
As to the kind of experiment: hP2Y1 receptor activity assay (2-MeS-ADP-induced intracellular calcium mobilization in hP2Y1-JA7 Jurkat cells). The test is classed as cell-based. The settings on record: 10^-7 M 2-MeS-ADP, read-out: IC50 on 2-MeS-ADP-mediated intracellular calcium mobilization. For orientation: A change in cytosolic calcium serves as a functional read-out for many receptors and channels.
Description: Therefore, hP2Y1 receptor activity of test compounds was assessed by measuring agonist-induced intracellular calcium mobilization in a mammalian cell line expressing the cloned receptor gene.
For intracellular calcium measurements, cells were collected by centrifugation, washed and resuspended in Hepes-Tyrodes buffer/0.1% BSA/1 mM CaCl2 at 10^7 cells/ml at 37° C. Fura-2AM (Molecular Probes, Eugene, Oreg.) was added to 4 μM in the presence of 0.008% Pluronic F-27 (Molecular Probes, Eugene, Oreg.) and incubation continued for 30 minutes at 37° C. in the dark with gentle agitation. Cells were collected by centrifugation and incubated for 15 minutes at 37° C. in buffer with 1 U apyrase/ml. Cells were then centrifuged and resuspended at 4° C. and 2×10^6 cells/ml. […] Calcium responses were determined for the agonist 2-MeS-ADP (2-methylthioadenosine diphosphate, trisodium salt, RBI, Natick, Ma.) at the submaximal concentration of 10^−7M in the absence and presence of various concentrations of test compounds. Maximum ratios were determined after lysis of cells with 100 μM digitonin, minimum ratios after addition of 20 mM iris and 10 mM EGTA. […] Increases in intracellular calcium levels were determined by subtraction of baseline levels from peak calcium levels.

The subject of test [2] is ADP-induced human platelet aggregation. As to the kind of experiment: Inhibition of ADP-mediated platelet aggregation in vitro (96-well microtiter assay, washed platelets). Type of test: cell-based. The settings on record: for pIC50 / IC50: Platelet; for IC50: units given with the value (nM to μM). As to the method:
The effect of test Compounds 1-8 of, respectively, Examples 1-8 on ADP-induced human platelet aggregation was assessed in 96-well microtiter assay. Human venous blood was collected from healthy, drug-free volunteers into ACD (85 mM sodium citrate, 111 mM glucose, […] citric acid) containing PGI2 (1.25 ml ACD containing 1.6 μM PGI2/10 ml blood; PGI2 was from Sigma, St. Louis, Mo.). Platelet-rich plasma (PRP) was prepared by centrifugation at 160×g for 20 minutes at room temperature. Washed platelets were prepared by centrifuging PRP for 10 minutes at 730×g and resuspending the platelet pellet in CGS (13 mM sodium citrate, 30 mM glucose, 120 mM NaCl; 2 ml CGS/10 ml original blood volume) containing 1 U/ml apyrase (grade V, Sigma, St. Louis, Mo.). After incubation at 37° C. for 15 minutes, the platelets were collected by centrifugation at 730×g for 10 minutes and resuspended at a concentration of 3×10^8 platelets/ml in Hepes-Tyrode's buffer (10 mM Hepes; 138 mM NaCl, 5.5 mM glucose, 2.9 mM KCl, 12 mM NaHCO3, pH 7.4) containing 0.1% bovine serum albumin, 1 mM CaCl2 and 1 mM MgCl2. This platelet suspension was kept >45 minutes at 37° C. before use in aggregation assays.
Inhibition of ADP-dependent aggregation was determined in 96-well flat-bottom microtiter plates using a microtiter plate shaker and plate reader similar to the procedure described by Frantantoni et al., Am. J. Clin. Pathol. 94, 613 (1990). All steps were performed at room temperature. The total reaction volume of 0.2 ml/well included in Hepes-Tyrodes buffer/0.1% BSA: 4.5×10^7 apyrase-washed platelets, 0.5 mg/ml human fibrinogen (American Diagnostica, Inc., Greenwich, Conn.), serial dilutions of test compounds (buffer for control wells) in 0.6% DMSO. After about 5 minutes preincubation at room temperature, ADP was added to a final concentration of 2 μM which induces submaximal aggregation. Buffer was added instead of ADP to one set of control wells (ADP^−control). The OD of the samples was then determined at 490 nm using a microtiter plate reader (Softmax, Molecular Devices, Menlo Park, Calif.) resulting in the 0 minute reading. The plates were then agitated for 5 min on a microtiter plate shaker and the 5 minute reading obtained in the plate reader. Aggregation was calculated from the decrease of OD at 490 nm at t=5 minutes compared to t=0 minutes and expressed as % of the decrease in the ADP control samples corrected for changes in the unaggregated control samples.
In some experiments, 0.3 mM 8-sulphophenyltheophylline (8-SPT, Sigma, St. Louis, Mo.) was added to the reaction to block any potential adenosine receptor activity of test compounds.

A further test deals with platelet ADP receptors (Homo sapiens, UniProt Q9H244). As to the kind of experiment: Inhibition of [^3H]2-MeS-ADP binding to platelets. As for the experimental part:
All steps were performed at room temperature unless indicated otherwise.

Where [3] appears, read: Homo sapiens, read-out: IC50s of ADP-dependent aggregation of human platelets, span over the series.
The mark [4] stands for this setting: washed human platelets, 2 μM ADP, mean of 3-12 independent experiments in duplicate, read-out: IC50 Aggregation (inhibition of ADP-dependent platelet aggregation).
Where [5] appears, read: outdated human platelets, 1 nM [^3H]2-MeS-ADP, mean of 2-8 independent experiments in duplicate.

The values below come from patent publication US6667306B1, “Platelet ADP receptor inhibitors” (Millennium Pharmaceuticals, Inc., priority 1998, dated 2003).

pIC50: −log10 of the molar value. Like-named read-outs stand apart in the source and are kept apart here. Some results are limits rather than exact numbers.

platelet ADP receptors, sequence (Q9H244 whole entry): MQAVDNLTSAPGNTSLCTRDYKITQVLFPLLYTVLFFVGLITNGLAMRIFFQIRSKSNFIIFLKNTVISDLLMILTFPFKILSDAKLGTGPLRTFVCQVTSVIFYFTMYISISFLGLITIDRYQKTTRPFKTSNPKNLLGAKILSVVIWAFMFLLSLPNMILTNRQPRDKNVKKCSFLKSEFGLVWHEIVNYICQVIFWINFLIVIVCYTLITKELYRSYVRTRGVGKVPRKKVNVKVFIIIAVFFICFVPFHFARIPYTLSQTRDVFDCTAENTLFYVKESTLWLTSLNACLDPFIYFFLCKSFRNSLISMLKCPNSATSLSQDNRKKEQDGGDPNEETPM
T1 sequence (P47900 whole entry, the tested form may be a part): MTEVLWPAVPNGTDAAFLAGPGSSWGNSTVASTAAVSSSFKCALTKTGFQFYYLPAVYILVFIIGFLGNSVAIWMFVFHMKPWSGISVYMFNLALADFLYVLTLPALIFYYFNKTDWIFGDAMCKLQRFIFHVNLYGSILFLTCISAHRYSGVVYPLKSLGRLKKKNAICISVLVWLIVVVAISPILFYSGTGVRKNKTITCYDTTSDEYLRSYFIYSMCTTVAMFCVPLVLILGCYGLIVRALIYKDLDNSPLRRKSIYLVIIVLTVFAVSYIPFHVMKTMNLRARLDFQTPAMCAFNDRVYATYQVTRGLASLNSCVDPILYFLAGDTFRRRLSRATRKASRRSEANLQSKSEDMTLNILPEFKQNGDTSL

On to `CCOc1ccc2c(c1)SC1=NS(=O)(=O)C(C(=O)CS(=O)(=O)Nc3nc4ccc(OCC)cc4s3)=C(O)N12` [Compound 1, N^1-(6-Ethoxy-1,3-benzothiazol-2-yl)-2-(8-ethoxy-4-hydroxy-2,2-dioxo-2H-2l^6-benzo[4,5][1,3]thiazolo[2,3-c][1,2,4]thiadiazin-3-yl)-2-oxo-1-ethanesulfonamide], for which the pIC50 in test [1] was under 4.00; in test [2] (setting [3]) it was at most 6.74; in test [2] (setting [4]), 6.74; on platelet ADP receptors, 6.77. The “potency on ADP-dependent aggregation in the presence of 8-sulphophenyltheophylline” value in test [2] (0.3 mM 8-SPT (adenosine receptor antagonist) added) was “not reduced”.
Take `O=C(CS(=O)(=O)Nc1nc2ccccc2s1)C1=C(O)N2C(=NS1(=O)=O)Sc1ccccc12` [Compound 2, N^1-(1,3-benzothiazol-2-yl)-2-(4-hydroxy-2,2-dioxo-2H-2l^6-benzo[4,5][1,3]thiazolo[2,3-c][1,2,4]thiadiazin-3-yl)-2-oxo-1-ethanesulfonamide]: the IC50 in test [2] (setting [3]) was at least 180 nM. Besides, the pIC50 in test [2] (setting [4]) was 4.59.
Consider `Cc1ccc2c(c1)SC1=NS(=O)(=O)C(C(=O)CS(=O)(=O)Nc3nc4ccc(C)cc4s3)=C(O)N12` [Compound 3, N^1-(6-Methyl-13-benzothiazol-2-yl)-2-(8-methyl-4-hydroxy-2,2-dioxo-2H-2l^6-benzo[4,5][1,3]thiazolo[2,3-c][1,2,4]thiadiazin-3-yl)-2-oxo-1-ethanesulfonamide], for which the IC50 in test [2] (setting [3]) is at least 180 nM. In addition, the pIC50 in test [2] (setting [4]) was 5.02; at platelet ADP receptors (setting [5]), 4.66.
For the compound `O=C(CS(=O)(=O)Nc1nc2ccc(Cl)cc2s1)C1=C(O)N2C(=NS1(=O)=O)Sc1cc(Cl)ccc12` [Compound 4, N^1-(6-Chloro-1,3-benzothiazol-2-yl)-2-(8-chloro-4-hydroxy-2,2-dioxo-2H-2l^6-benzo[4,5][1,3]thiazolo[2,3-c][1,2,4]thiadiazin-3-yl)-2-oxo-1-ethanesulfonamide], the IC50 in test [2] (setting [3]) is at least 180 nM. Also, in test [2] (setting [4]), the pIC50 is 4.19.
Taken in the same sequence, the figures for `CS(=O)(=O)c1ccc2c(c1)SC1=NS(=O)(=O)C(C(=O)CS(=O)(=O)Nc3nc4ccc(S(C)(=O)=O)cc4s3)=C(O)N12` [Compound 5, N^1-(6-Methylsulfonyl-1,3-benzothiazol-2-yl)-2-(8-methylsulfonyl-4-hydroxy-2,2-dioxo-2H-2l^6-benzo[4,5][1,3]thiazolo[2,3-c][1,2,4]thiadiazin-3-yl)-2-oxo-1-ethanesulfonamide] were at least 180 nM and 6.15.
With `O=C(CS(=O)(=O)Nc1nc2ccc([N+](=O)[O-])cc2s1)C1=C(O)N2C(=NS1(=O)=O)Sc1cc([N+](=O)[O-])ccc12` [Compound 6, N^1-(6-Nitro-1,3-benzothiazol-2-yl)-2-(8-nitro-4-hydroxy-2,2-dioxo2H-2l^6-benzo[4,5][1,3]thiazolo[2,3-c][1,2,4]thiadiazin-3-yl)-2-oxo-1-ethanesulfonamide], in test [2] (setting [3]), the IC50 is at least 180 nM. Further, the pIC50 in test [2] (setting [4]) is 4.30.
The like results for `O=C(CS(=O)(=O)Nc1nc2ccc(F)cc2s1)C1=C(O)N2C(=NS1(=O)=O)Sc1cc(F)ccc12` [Compound 7, N^1-(6-Fluoro-1,3-benzothiazol-2-yl)-2-(8-fluoro-4-hydroxy-2,2-dioxo-2H-2l^6-benzo[4,5][1,3]thiazolo[2,3-c][1,2,4]thiadiazin-3-yl)-2-oxo-1-ethanesulfonamide] were, in that order, at least 180 nM and under 3.92.
For the compound `COc1ccc2c(c1)SC1=NS(=O)(=O)C(C(=O)CS(=O)(=O)Nc3nc4ccc(OC)cc4s3)=C(O)N12` [Compound 8, N^1-(6-Methoxy-1,3-benzothiazol-2-yl)-2-(8-methoxy-4-hydroxy-2,2-dioxo-2H-2l^6-benzo[4,5][1,3]thiazolo[2,3-c][1,2,4]thiadiazin-3-yl)-2-oxo-1-ethanesulfonamide], in test [2] (setting [3]), the IC50 is at least 180 nM. Moreover, the pIC50 in test [2] (setting [4]) was 5.82; on platelet ADP receptors (setting [5]) it was 6.10.
